Source: article PMC4833932, “Cytotoxicity and cell cycle arrest induced by andrographolide lead to programmed cell death of MDA-MB-231 breast cancer cell line” (Journal of Biomedical Science, 2016)

Tests used:
[1] = test system: platelets; design: method as in PMID 21822619; dose or concentration left out as unconfirmed; conditions: cited from earlier work
[2] = test system: MDA-MB-231; assay: Cellular ROS level (DCF-DA); assay type: cell-based, human; conditions: 15, 30, 45 and 60 μM, 12-48 h
Description: To estimate intracellular ROS level, MDA-MB-231 (2 × 10^4 cells per well) were treated with andrographolide (15, 30, 45 and 60 μM) for 12–48 h and were harvested by centrifugation for the assay. The cell suspension (200 μl, containing 1 × 10^5 cells per ml) was mixed to PBS (800 μl) and 10 μM 2ʹ, 7ʹ-dichlorofluorescein diacetate (DCF-DA) and kept at 37 °C for 30 min in the dark. 25 μM H2O2 was used for positive control. The intracellular ROS level was measured by determining the production of H2O2 using a spectrofluorometer (excitation, 488 nm; emission, 515 nm). Another set of experiment was similarly performed where MDA-MB-231 cells were pre-treated with 3 mM NAC for 1 h followed by without or with andrographolide (30 μM) treatment. Same experiment was also performed using MCF-7 cells.

[3] = test system: caspase-9; assay: Caspase activity assay (fluorometric, LEHD-AFC) in MDA-MB-231 cells; assay type: cell-based, human; conditions: 0-60 μM, 24 h
Description: MDA-MB-231 cells (1 × 10^5 cells per ml) were incubated with different concentrations of andrographolide (0, 15, 30, 45 and 60 μM) for 24 h and then centrifuged to detect caspase-3 and caspase-9 activation using caspase fluoremetric protease assay kit following manufacturer’s instructions. Briefly, cells were lysed in RIPA buffer supplemented with protease inhibitor cocktail and 10 μl lysate were diluted with 10 μl substrate buffer (1:1) containing 100 μM each of fluorogenic substrate, DEVD-AFC and LEHD-AFC for caspase-3 and caspase-9 respectively, and was then incubated for 90 min at 37 °C. Reactions were stopped using 0.2 mM sodium phosphate buffer (pH 7.5) and fluorescence was quantified by a spectrofluorometer (excitation, 405 nm; emission, 505 nm). Experiment was also performed using MCF-7 cells.

[4] = test system: MDA-MB-231 cells; assay: Cell cycle analysis by flow cytometry (PI); assay type: cell-based, human; conditions: 30 μM
Description: In order to study the stages of the cell cycle affected by andrographolide, flow cytometry analysis of cell cycle was carried out. Cells were seeded in a 6-well tissue culture plate at an initial density of 2.5 × 10^5 cells per well in the presence of andrographolide (30 μM) or vehicle (DMSO) for 24, 36 and 48 h. The treatment medium and the attached cells were collected after trypsinisation and centrifugation at 1000 × g. Cells were then fixed with 70 % ethanol at 4 °C overnight. The resulted pellets were resuspended in PBS having 100 μg/ml RNAse A (Sigma-Aldrich, USA) and 50 μg/ml PI, and then kept in dark at 25 °C for 30 min. Cell cycle phase distribution were monitored on the BD FACSVerse™ (Becton Dickinson, USA) and analyzed by using FACSuite™ software. A total of 10,000 events were recorded.

[5] = test system: cytochrome c; assay: Western blot of cytosolic and mitochondrial fractions of MDA-MB-231 cells; assay type: cell-based, human; conditions: 30 μM, 48 h
Description: Cells were treated with andrographolide (30 μM) for 48 h and mitochondrial as well as cytosolic fractions were obtained with a mitochondria isolation kit (Pierce, Rockford, USA). The mitochondrial pellet was re-suspended in sample buffer for SDS-gel electrophoresis and analyzed by Western blot using cytochrome c antibody. COX IV and β-actin were used as loading controls for the mitochondrial fraction and cytosolic fraction respectively. Cytosolic fractions were also Western blotted for studying cytochrome c expression.
Cells from control regime and andrographolide treatment (30 μM, 48 h) were used for Western blot. After centrifugation, cell pellets were lysed in RIPA buffer containing protease and phosphatase inhibitors (Roche, Germany). Each cell lysate was used for protein assay with Bio-Rad protein assay kit (Bio-Rad, USA). A protein sample of 50 μg was electrophoresed in a 12 % SDS-PAGE. Proteins were electro-transferred from the gel onto a nitrocellulose membrane (Amersham Biosciences, UK). […] The protein bands were visualized by incubating the membrane with diaminobenzidine/hydrogen peroxide (Sigma-Aldrich) for color reaction. β-Actin and COX IV were also detected as loading controls.

[6] = test system: MDA-MB-231 cells; assay: Cell proliferation assay (trypan blue); assay type: cell-based, human; conditions: 30 μM, 48 h
Description: MDA-MB-231 cells harvested from exponential growth phase were seeded at a density of 1 × 10^4/well in a 24-well culture plate. After 24 h, the cells were treated with varying concentrations of andrographolide (15, 30, 45 and 60 μM) or DMSO (0.1 %, vehicle control) for 12, 24, 36 and 48 h. After treatment, cells were harvested by trypsinization, stained with 0.4 % trypan blue and counted in a hemocytometer. Cell proliferation index PI, was calculated as PI = Ct/C0; where Ct = cell count at time t and C0 = cell count at the time of treatment.

[7] = test system: male mice; design: method as in PMID 2228074; conditions: intraperitoneal route; cited from earlier work
[8] = test system: MDA-MB-231 cells; assay: Mitochondrial membrane potential (Rhodamine 123); assay type: cell-based, human; conditions: 15-60 μM, 24 and 48 h
Description: The loss of mitochondrial membrane potential (∆ψm) (MMP) is a primary event leading to phosphatidyl serine externalization, which corresponds with the activation of caspase. MMP was quantified by the incorporation of a fluorescent dye Rhodamine 123 [25]. Cells (1 × 10^4 per well) were incubated with different concentrations (15, 30, 45 or 60 μM) of andrographolide in the absence or presence of NAC for 24 and 48 h. Positive control was obtained with a mitochondrial uncoupling agent, carbonyl cyanide m-chloro-phenylhydrazone (CCCP; 20 μM) for 30 min. The treated cells were washed twice with chilled PBS before incubation with Rhodamine 123 (5 μg/ml) and kept at 37 °C for 15 min. The fluorescence intensity was detected using an emission filter of 535 nm. Same experiment was also performed using MCF-7 cells.

## C=C1CC[C@@H]2[C@](C)(CO)[C@H](O)CC[C@@]2(C)[C@@H]1C/C=C1/C(=O)OC[C@H]1O [andrographolide]
[1]
  cytotoxic effect on platelets: no cytotoxic effect
[2]
  ROS generation (DCF fluorescence): increasing ROS generation with longer exposure and elevated dose
[3]
  activation of caspase-9: gradual dose-dependent activation
[4]; 24 h
  decrease in the cell number at the G1/G0 phase over the control: 24.75 ± 0.5%
  increase in S population over the untreated control: 9.91 ± 0.3%
[4]; 36 h
  decrease in the cell number at the G1/G0 phase over the control: 28.86 ± 0.7%
  increase in S population over the untreated control: 14.21 ± 0.2%
[4]; 48 h
  decrease in the cell number at the G1/G0 phase over the control: 33.53 ± 1.1%
[5]; cytosolic fraction
  cytosolic cytochrome c expression, increase: 7.13 ± 1.17 fold
[5]; mitochondrial fraction
  cytochrome c in the mitochondrial fraction, decrease: 1.92 ± 0.05 fold
[6]
  cell death: ~ 50%
[7]
  LD50: 11460 mg/kg
[8]
  MMP level: significant (P < 0.01) drop of MMP level
